Measured values reported in a melting point compilation (Tetko et al.; mined from patent text by program, amines drawn as free bases though some values may be those of a salt).

Row | Compound | melting point
1 | N#Cc1cnc2cc3ccccc3cc2c1Nc1ccc(F)c(Cl)c1 | 257 to 259 °C
2 | CCc1nn(C(C)CCCc2ccccc2)c2nc(Cc3ccc(-c4cccc(N)c4)cc3)[nH]c(=O)c12 (stereo not drawn) | 108 °C
3 | COC(=O)[C@H](CCCC(OC)OC)N1C(=O)c2ccccc2C1=O | 69 to 70 °C
4 | COc1ccc(C(=O)c2cccc(C(F)(F)F)c2F)c(OC)c1 | 79 to 82 °C
5 | CCn1ccc(C2(c3cccc(-c4cncnc4)c3)N=C(N)N(C)C2=O)c1 (stereo not drawn) | 100 to 102 °C
6 | Fc1ccc(-c2nc3ccc(N4CCC(N5CCCC5)CC4)nn3c2-c2ccnc3[nH]ccc23)cc1 | 261 to 264 °C
7 | CNC(=S)NCCN1CCC(Nc2nc3cncnc3n2Cc2ccc(F)cc2)CC1 | 206 °C
8 | COc1cc(O)c2c(=O)c3c(oc2c1)oc1cc(O)ccc13 | 265 to 268 °C
9 | CC1(C)Cc2cccc(CCN3CCN(c4nsc5ccccc45)CC3)c2NC1=O | 95 °C
10 | COC(=O)C1C(=O)NC(=O)C12C(=O)N1c3ccccc3Sc3cccc2c31 (stereo not drawn) | 221 to 224 °C
11 | CCCCn1c(=O)c(C(=O)OCC)c(N2CCN(C(=O)c3cccs3)CC2)c2cccnc21 | 90 to 96 °C
12 | Cc1cc(C)nc(S(=O)(=O)Nc2c(C)cccc2Cl)n1 | 215 to 219 °C
13 | COc1ccccc1N1CCN(CCn2c(=O)c3cscc3n(C)c2=O)CC1 | 167 to 168 °C
14 | O=C(Nc1ccncc1)Nc1c(Cl)cccc1Cl | 217 to 219 °C
15 | Nc1nc(COc2ccc(Cl)c(Cl)c2)nc2nccnc12 | 261 to 263 °C
16 | O=C(Nc1cc(Cl)cc(Cl)c1O)Nc1cccc(C(F)(F)F)c1Cl | 161 to 163 °C
17 | CC(C)(C)OC(=O)N[C@@H]1C(=O)N(O)C1(C)C | 148 to 149 °C
18 | Cc1oc(-c2ccccc2)nc1COc1ccc(COc2ccc(-c3ccccc3)cc2CC(=O)O)cc1 | 102 to 103 °C
19 | CCOC(=O)c1cn(-c2cnsn2)c2cc(F)c(F)cc2c1=O | 189 to 192 °C

Row | Compound | melting point
20 | N#Cc1c(Cl)[nH]c2ccccc12 | 177 to 180 °C
21 | CCOC(=O)C1=C(N)NC2=C(C(=O)CCC2)C1c1ccccc1-c1ccccc1 (stereo not drawn) | 248 °C
22 | CN1CCC[C@@H]1Cc1cn(Cc2ccccc2)c2ccc(CS(=O)(=O)N(C)C(c3ccccc3)c3ccccc3)cc12 | 117 to 120 °C
23 | Cc1ccc(S(=O)(=O)Nc2ccc(C#N)cc2[N+](=O)[O-])cc1 | 150 to 152 °C
24 | CC(=O)Cc1cccc(S(N)(=O)=O)c1 | 155 to 157 °C
25 | COC(=O)c1ccc(C(=O)c2ccc(C)cc2)cc1 | 125 to 126 °C
26 | COc1ccc(S(=O)C(C(=O)NO)C(C)C)cc1 (stereo not drawn) | 163 °C
27 | CSCc1noc(-c2cc(C(C)(C)C)c(O)c(C(C)(C)C)c2)n1 | 97 to 98 °C
28 | CCc1cc2c(ccc(=O)n2Cc2ccc(-c3ccccc3S(N)(=O)=O)cc2)c(CC)n1 | 199 to 200 °C
29 | Cc1ccc(-n2nc(Cl)cc2-c2ccc(S(C)(=O)=O)cc2)cc1F | 160 to 162 °C
30 | CN1C(NCCCO)=NC(c2ccccc2)c2cc(Cl)ccc21 (stereo not drawn) | 165 to 166 °C
31 | O=C(O)c1ccc(N(Cc2cncs2)c2ccc(OC(F)F)c(OC(F)F)c2)cc1 | 144 to 146 °C
32 | CC(C)(O)c1cc(O)cc(C(C)(C)O)c1 | 137 to 138 °C
33 | CCc1cc(NC(=O)C(CSC(C)=O)Cc2ccccc2)cc(C(=O)O)c1 (stereo not drawn) | 175 to 177 °C
34 | O=C(Nc1cccc2cc(C(=O)O)[nH]c12)c1cc(OCc2ccccc2F)cc(OCc2ccccc2F)c1 | 271 to 273 °C
35 | CCCOc1ccccc1-c1nc2nc(CC)ncc2c(=O)[nH]1 | 118 to 119 °C
36 | CCN1CC(C(=O)N2CCOCC2)Cc2cccc(CSc3nc4ccccc4[nH]3)c21 (stereo not drawn) | 194 °C
37 | CN(CCOC[C@@H]1CC(c2ccc(-c3ccc(N4C[C@H](Cn5ccnn5)OC4=O)cc3F)cn2)=NO1)CC(=O)O | 135 to 140 °C
38 | COc1ccc2c(c1)c(CCNC(C)=O)cn2S(=O)(=O)c1ccc(C)cc1 | 132 to 133 °C
